The source of these data is patent publication US20250115598A1 (Anaxis Pharma Pty Ltd, priority 2021, published 2025).

Test [1] deals with U937 human histiocytic leukemia cell line. In words: Cellular assay: inhibition of TSQ induced necroptosis, CellTitre-Glo viability. As to conditions: U937 cells, 48 hours, TSQ cocktail, read-out: Inhibition of TSQ-induced necroptosis (IC50 cell-based assay). Put shortly:
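U937 cells (20,000/well) treated with compound (10-point, 36 μM top, 1:3) plus TSQ cocktail (hTNF-Fc 100 ng/ml, Smac mimetic 500 nM, Q-VD-OPh 10 μM), 48 h at 37° C., 0.3% DMSO. Viability by CellTitre-Glo ATP luminescence; counter screen without TSQ measured compound-only effects on viability.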

Test [2] relates to U937 cells. Put plainly: Counter screen: cell viability without the TSQ cocktail (off-target effect). Also on record: species or system human. Put shortly:
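U937 cells (20000/well, HT-RPMI + 7.4% FBS) treated with compound (10-point 1:3 dilution from 36 μM, 0.3% DMSO) without the TSQ cocktail for 48 h at 37 °C/5% CO2. Viability read as ATP by CellTiter-Glo luminescence, flagging off-target cytotoxicity.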
(In general: The purpose of a counterscreen is to sort out artefacts and off-target activity.)

The target in test [3] is endogenous MLKL in U937 (Homo sapiens (Human), UniProt Q8NB16). In words: Degradation assay: endogenous MLKL in U937 (western blot). The following applies: U937, 24 h incubation, read-out: Degradation of endogenous MLKL in U937 (DC50 cell-based assay). Put shortly:
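Western blot band intensity of MLKL, adjusted to GAPDH loading and normalized to DMSO-only wells, gave percent degradation. Compound exposure lasted 24 h at final concentrations of 10–0.016 μM in 1:5 steps, in mouse dermal fibroblasts or human U937 cells.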

Where [4] appears, read: Table 23, read-out: Off-target effect (IC50 cell-based assay).
Where [5] appears, read: Homo sapiens, U-937, Table 26, read-out: Off-target effect (IC50 cell-based assay).

Like-named read-outs stand apart in the source and are kept apart here.

endogenous MLKL in U937, sequence (Q8NB16 whole entry): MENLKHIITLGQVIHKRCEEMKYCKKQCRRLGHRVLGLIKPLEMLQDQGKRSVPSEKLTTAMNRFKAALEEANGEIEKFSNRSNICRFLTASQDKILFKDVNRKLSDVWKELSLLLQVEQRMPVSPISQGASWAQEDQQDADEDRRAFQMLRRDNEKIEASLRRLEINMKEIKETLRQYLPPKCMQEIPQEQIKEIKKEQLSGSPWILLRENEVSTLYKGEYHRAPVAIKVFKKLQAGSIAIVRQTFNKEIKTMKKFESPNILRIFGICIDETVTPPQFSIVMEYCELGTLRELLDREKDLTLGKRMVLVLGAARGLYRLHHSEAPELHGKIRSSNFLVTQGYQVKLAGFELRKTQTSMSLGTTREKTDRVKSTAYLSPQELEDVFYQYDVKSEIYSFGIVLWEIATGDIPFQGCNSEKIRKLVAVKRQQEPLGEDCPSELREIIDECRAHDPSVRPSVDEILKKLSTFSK

Broadly, the IC50 is the concentration needed to halve the response being measured. `Nc1ncc(-c2cnn(C3CCOCC3)c2)c2[nH]nc(-c3ccc(NS(=O)(=O)C(F)F)c(OCc4cccc(Cl)c4)c3)c12` [Compound 131]: the results for the IC50 in test [1] (Table 23) and in test [2] (setting [4]) were 10 to 1000 nM and greater than 10 µM, respectively.
What is called DC50 is the midpoint of the concentration-degradation curve. Turning to `Cc1ncsc1-c1ccc(CNC(=O)[C@@H]2C[C@@H](O)CN2C(=O)[C@@H](NC(=O)COCCOCCn2cc(-c3cnc(N)c4c(-c5ccc(NS(=O)(=O)C(F)F)c(O[C@@H](C)c6ccc(F)cc6)c5)nn(C)c34)cn2)C(C)(C)C)cc1` [Compound 1006, (2S,4R)-1-[(2S)-2-(2-{2-[2-(4-{4-amino-3-[4-(difluoromethanesulfonamido)-3-[(1S)-1-(4-fluorophenyl)ethoxy]phenyl]-1-methyl-1H-pyrazolo[4,3-c]pyridin-7-yl}-1H-pyrazol-1-yl)ethoxy]ethoxy}acetamido)-3,3-dimethylbutanoyl]-4-hydroxy-N-{[4-(4-methyl-1,3-thiazol-5-yl)phenyl]methyl}pyrrolidine-2-carboxamide], the DC50 in test [3] is less than 1000 nM. For the same compound, the IC50 in test [1] (Homo sapiens, U-937, Table 26) was less than 1000 nM; in test [2] (setting [5]) it was 1 to 10 µM.
Regarding `Cc1ncsc1-c1ccc(CNC(=O)[C@@H]2C[C@@H](O)CN2C(=O)[C@@H](NC(=O)CCCCCCn2cc(-c3cnc(N)c4c(-c5ccc(NS(=O)(=O)C(F)F)c(O[C@@H](C)c6ccc(F)cc6)c5)nn(C)c34)cn2)C(C)(C)C)cc1` [Compound 1008, (2S,4R)-1-[(2S)-2-[7-(4-{4-amino-3-[4-(difluoromethanesulfonamido)-3-[(1 S)-1-(4-fluorophenyl)ethoxy]phenyl]-1-methyl-1H-pyrazolo[4,3-c]pyridin-7-yl}-1H-pyrazol-1-yl)heptanamido]-3,3-dimethylbutanoyl]-4-hydroxy-N-{[4-(4-methyl-1,3-thiazol-5-yl)phenyl]methyl}pyrrolidine-2-carboxamide], the DC50 in test [3] is less than 1000 nM. In addition, the IC50 in test [1] (Homo sapiens, U-937, Table 26) was less than 1000 nM; in test [2] (setting [5]), 1 to 10 µM.
`Cc1ncsc1-c1ccc(CNC(=O)[C@@H]2C[C@@H](O)CN2C(=O)[C@@H](NC(=O)CCN2CCCC(n3cc(-c4cnc(N)c5c(-c6ccc(NS(=O)(=O)C(F)F)c(O[C@@H](C)c7ccc(F)cc7)c6)nn(C)c45)cn3)C2)C(C)(C)C)cc1` (stereo partly drawn) [Compound 1014, (2S,4R)-1-[(2S)-2-{3-[3-(4-{4-amino-3-[4-(difluoromethanesulfonamido)-3-[(1S)-1-(4-fluorophenyl)ethoxy]phenyl]-1-methyl-1H-pyrazolo[4,3-c]pyridin-7-yl}-1H-pyrazol-1-yl)piperidin-1-yl]propanamido}-3,3-dimethylbutanoyl]-4-hydroxy-N-{[4-(4-methyl-1,3-thiazol-5-yl)phenyl]methyl}pyrrolidine-2-carboxamide]: in test [3], the DC50 was less than 1000 nM. In addition, the half-inhibitory concentration (IC50) in test [1] (Homo sapiens, U-937, Table 26) is less than 1000 nM; in test [2] (setting [5]) it was greater than 10 µM.
On to `Cc1ncsc1-c1ccc(CNC(=O)[C@@H]2C[C@@H](O)CN2C(=O)[C@@H](NC(=O)COCCN2CCCC(n3cc(-c4cnc(N)c5c(-c6ccc(NS(=O)(=O)C(F)F)c(O[C@@H](C)c7ccc(F)cc7)c6)nn(C)c45)cn3)C2)C(C)(C)C)cc1` (stereo partly drawn) [Compound 1015, (2S,4R)-1-[(2S)-2-(2-{2-[3-(4-{4-amino-3-[4-(difluoromethanesulfonamido)-3-[(1S)-1-(4-fluorophenyl)ethoxy]phenyl]-1-methyl-1H-pyrazolo[4,3-c]pyridin-7-yl}-1H-pyrazol-1-yl)piperidin-1-yl]ethoxy}acetamido)-3,3-dimethylbutanoyl]-4-hydroxy-N-{[4-(4-methyl-1,3-thiazol-5-yl)phenyl]methyl}pyrrolidine-2-carboxamide], for which the DC50 in test [3] was in the range of 1000 to 10000 nM. For the same compound, the IC50 in test [1] (Homo sapiens, U-937, Table 26) was less than 1000 nM; in test [2] (setting [5]), greater than 10 µM.
With `Cc1ncsc1-c1ccc(CNC(=O)[C@@H]2C[C@@H](O)CN2C(=O)[C@@H](NC(=O)COCCN2CCC(n3cc(-c4cnc(N)c5c(-c6ccc(NS(=O)(=O)C(F)F)c(O[C@@H](C)c7ccc(F)cc7)c6)nn(C)c45)cn3)CC2)C(C)(C)C)cc1` [Compound 1018, (2S,4R)-1-[(2S)-2-(2-{2-[4-(4-{4-amino-3-[4-(difluoromethanesulfonamido)-3-[(1S)-1-(4-fluorophenyl)ethoxy]phenyl]-1-methyl-1H-pyrazolo[4,3-c]pyridin-7-yl}-1H-pyrazol-1-yl)piperidin-1-yl]ethoxy}acetamido)-3,3-dimethylbutanoyl]-4-hydroxy-N-{[4-(4-methyl-1,3-thiazol-5-yl)phenyl]methyl}pyrrolidine-2-carboxamide], the IC50 in test [1] (Homo sapiens, U-937, Table 26) is less than 1000 nM; in test [2] (setting [5]), greater than 10 µM.
For the compound `C[C@H](Oc1cc(-c2nn(C)c3c(-c4cnn(CCCCCCCOc5cccc6c5C(=O)N(C5CCC(=O)NC5=O)C6=O)c4)cnc(N)c23)ccc1NS(=O)(=O)C(F)F)c1ccc(F)cc1` (stereo partly shown) [Compound 1031, N-(4-{4-amino-7-[1-(7-{[2-(2,6-dioxopiperidin-3-yl)-1,3-dioxo-2,3-dihydro-1H-isoindol-4-yl]oxy}heptyl)-1H-pyrazol-4-yl]-1-methyl-1H-pyrazolo[4,3-c]pyridin-3-yl}-2-[(1 S)-1-(4-fluorophenyl)ethoxy]phenyl)-1,1-difluoromethanesulfonamide], the IC50 in test [1] (Homo sapiens, U-937, Table 26) is less than 1000 nM.
On to “N-(4-(4-amino-1-methyl-7-(1-(1,2,2-trimethylpiperidin-4-yl)-1H-pyrazol-4-yl)-1H-pyrazolo[4,3-c]pyridin-3-yl)-2-((S)-1-(4-fluorophenyl)ethoxy)phenyl)-1,1-difluoromethanesulfonamide [Compound 113]”, for which the IC50 in test [1] (Table 23) is less than 10 nM; in test [2] (setting [4]), greater than 10 µM.
